Assay results as given in patent US12448363B2, “Kinase inhibitors” (Vidya Therapeutics, Inc., priority 2020, dated 2025).

Columns and labels:
[1] = Plasma and total brain concentrations at 1 h post a single oral administration to female C57BL/6 mice; format: in vivo; conditions: mouse, 1 h post single oral 10 mg/kg, LC-MS/MS, read-out: Brain:plasma ratio
Procedure: Determination of Plasma and Total Brain Concentrations at 1 h Post a Single Oral Administration of Test Compound to Female C57BL/6 Mice
The appropriate amount of test article was dissolved 10% dimethylacetamide (DMA)/90% (20% hydroxypropyl-b-cyclodextrin (HP-β-CD) w/v in water to obtain a final concentration of 1 mg/mL for oral dosing. Sonication, vortex, and homogenization was used as needed. Three female C57BL/6 mice aged 7-9 weeks (20-30 grams) were dosed by oral gavage 10 mg/kg solution of the test article.
Concentrations of representative test compounds in the plasma and brain samples (using plasma and brain homogenate standard curve for all samples appropriately) were analyzed using LC-MS/MS. With respect to the brain:plasma ratio, Table 11 lists the results as follows: • “A” denotes a ratio >0.5; • “B” denotes a ratio between 0.1 and 0.5; and • “C” denotes a ratio <0.1.

[2] = molecular target: T1, BTK (Homo sapiens, UniProt Q06187); assay: Assay to determine BTK inactivation rate in human whole blood (ELISA of unoccupied BTK); format: cell-based; parameters: Human whole blood is obtained from StemExpress; tissue StemExpress; host or cells: human whole blood; conditions: 37° C., 5, 15, 30, 60 minutes; for kinact/KI: read-out: BTK hWB Kinact/Ki
T1 sequence (Q06187 whole entry): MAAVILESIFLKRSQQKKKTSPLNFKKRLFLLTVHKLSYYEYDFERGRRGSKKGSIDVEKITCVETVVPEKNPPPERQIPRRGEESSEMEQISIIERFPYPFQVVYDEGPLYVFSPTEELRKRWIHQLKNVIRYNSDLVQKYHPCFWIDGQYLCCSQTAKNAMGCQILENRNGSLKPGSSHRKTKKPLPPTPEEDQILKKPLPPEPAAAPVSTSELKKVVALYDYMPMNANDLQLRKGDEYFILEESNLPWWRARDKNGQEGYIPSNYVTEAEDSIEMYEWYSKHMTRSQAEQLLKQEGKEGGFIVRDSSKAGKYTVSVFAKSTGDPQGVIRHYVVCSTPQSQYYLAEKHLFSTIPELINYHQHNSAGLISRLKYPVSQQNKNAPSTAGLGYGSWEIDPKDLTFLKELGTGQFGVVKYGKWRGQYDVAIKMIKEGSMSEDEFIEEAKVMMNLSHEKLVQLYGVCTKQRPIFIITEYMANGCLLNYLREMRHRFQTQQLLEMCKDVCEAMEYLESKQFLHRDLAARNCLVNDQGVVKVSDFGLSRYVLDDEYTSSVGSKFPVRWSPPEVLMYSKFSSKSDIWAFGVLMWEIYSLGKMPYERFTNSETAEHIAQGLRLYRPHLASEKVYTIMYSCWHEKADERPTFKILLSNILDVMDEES
Procedure: Human Whole Blood Compound Treatment and Lysis
Human whole blood is obtained from StemExpress and kept at ambient temperature until the time of the experiment. […] This is prepared fresh each experimental day. […] Compounds are reconstituted to stocks of 10 mM and are diluted in two-fold serial dilutions to generate an 8-point curve in DMSO, with the last point being DMSO only, creating a 100× dilution series. A working 10× dilution series is created using 1.0 μL of the prepared DMSO titration, 100×, into […] 1×PBS in order to keep the DMSO constant. The human whole blood is added in the volume of 225 μL per well in a new 96w v-bottom plate, where one column of eight wells is sufficient for testing one compound. For compound treatment, 25 μL of 10× dilution series in PBS is added to the 225 μL whole blood, followed by briefly pipetting up and down twice. The plates are covered with lids and incubated at 37° C. for 5, 15, 30, 60 minutes. At each timepoint, 30 μL of treated blood is pulled from each column and added to preloaded collection plates that contain 30 μL of supplemented lysis buffer and mixed briefly. The collected and lysed samples shake on rotator for 60 minutes at room temperature. These samples are used fresh for detection via ELISA, and remaining sample is frozen at −80° C. if a repeat is necessary.
ELISA: Determining Amount of Unoccupied BTK
All streptavidin pre-coated plates (R&D Systems, #CP004) are brought to room temperature while samples are lysing. Assay Buffer 1, 1×PBS+0.05% Tween 20+1% BSA is prepared and stored at 4° C. when not in use. Using this Assay Buffer, assay buffer+1× protease/phosphatase inhibitor cocktail (PICs) is prepared in the amount needed for all samples. Assay Buffer+PICs in the volume of 90 μL/well is added to the ELISA plate. Lysed blood sample (10 μL) is added to the ELISA plate. BTK recombinant protein dilutions are prepared in assay buffer+PICS for use as a μM). The standard is loaded into the ELISA plate at 100 μL/well, in duplicate. These samples and standards remain in the plate, sealed, overnight at 4° C. The following day, the plate is washed four times with 1× Wash Buffer (1×PBS+0.05% Tween 20) using a plate washer. The plate is inverted to expel all fluid each time and blotted on clean paper towels to remove remaining liquid. Assay Buffer 2 is prepared (1×PBS+0.05% Tween 20+0.05% BSA) and kept at 4° C. when not in use. […] Diluted a-BTK antibody is added at 100 μl/well. The plate is covered with adhesive film and incubated for 90 minutes at room temperature. The plate is washed four times with 1× Wash Buffer (1×PBS+0.05% Tween 20) using a plate washer. The plate is inverted to expel all fluid each time and blotted on clean paper towels to remove remaining liquid. […] The diluted antibody is added at 100 μl/well. The plate is covered with adhesive film and incubated for one hour at room temperature. The plate is washed four times with 1× Wash Buffer using a plate washer. The plate is inverted to expel all fluid each time and blotted on clean paper towels to remove remaining liquid. […] The plate is incubated at room temperature in the dark for −5-10 minutes. The reaction is stopped by adding 50 μl/well 2N sulfuric acid (H2SO4) (R&D Systems, #DY994). The plate is read in a plate reader at the wavelengths […] and 570 nm (correction wavelength). Using Graphpad Prism, an XY table+graph is created, listing 0-60 minutes as X axis and concentration as Y axis. A One Phase Decay model fit is applied to the data. Checking Results table, the K values are obtained and new XY table+graph are created. Concentration is assigned to the X axis and K values from first analysis are entered. The Michaelis-Menten equation is applied to the data.

[3] = molecular target: T1, BTK; assay: Assay to determine activity against BTK (EZ reader, FLPeptide); format: biochemical; parameters: purchased Carna; conditions: ATP (1 mM), BTK (2 nM), room temperature for 90 minutes
Procedure: Solutions of compounds (test or control) in DMSO were prepared at the desired concentrations, and serially diluted to 11 concentrations by 3-fold dilution in 384pp-plate using TECAN EVO200. 20 nL of stock were transferred to 384 plate using Echo550. DMSO was used as vehicle control.
Two separate solutions were prepared—an ATP solution containing MgCl2 (10 mM), Brij-35 (0.01%), DTT (2 mM), BSA (0.05%), EGTA (1 mM), HEPE (pH7.5) (50 mM), FLPeptide (6 uM) and ATP (4 mM); and a BTK solution containing MgCl2 (10 mM), Brij-35 (0.01%), DTT (2 mM), BSA (0.05%), EGTA (1 mM), HEPE (pH7.5) (50 mM) and BTK (2.67 nM). […] (Note the final volume of each well was 20 uL containing MgCl2 (10 mM), Brij-35 (0.01%), DTT (2 mM), BSA (0.05%), EGTA (1 mM), HEPE (pH7.5) (50 mM), FLPeptide (1.5 uM), ATP (1 mM) and BTK (2 nM).
The plates were incubated at room temperature for 90 minutes and then stopping buffer added (75 uL, containing 0.5 M EDTA) to terminate the reaction. Samples from each well were analyzed using EZ reader. The % remaining activity was calculated using read conversion ratio (CR) according to the equation: […]
XLFit (equation 201) was used to calculate IC50s by floating both bottom and top.
With respect to BTK activity, Table 4 lists activity as follows: • “A” denotes an IC50 of less than 10 nM, • “B” denotes an IC50 of from 10 nM to less than 100 nM; and • “C” denotes and IC50 of 100 nM or more.

[4] = system: BTK Activity in RAMOS B Cells; assay: Assay to determine BTK activity in RAMOS B cells (anti-IgM, FLIPR Calcium 6); format: cell-based; conditions: Homo sapiens, Ramos, EC80 anti-IgM, FLIPR calcium read
Procedure: On the day before assay, Ramos B cells were plated in plating medium (RPMI1640 medium containing 1% FBS and 1× pencillin-streptomycin). On the day of the assay, 2× dye solution was prepared following the manual of the FLIRP Calcium 6 Assay Kit: Dilute the dye with assay buffer (20 mM HEPES in 1×HBSS, pH7.4); Add probenecid to the final concentration of 5 mM; vortex vigorously for 1-2 minutes. Cells were collected by centrifuging, and the pellet was resuspended in plating medium. After counting, cells were resuspended at a density of 3×10^6/ml in plating medium. Equal volume of 2× dye solution was added to the cell suspension. Cells were then plated at 20 μl/well into a 384-well poly-D-lysine coated plate. Plate was centrifuged at 1000 rpm for 3 minutes and then incubated at 37° C. for 2 hours followed by an additional 15-minute incubation at 25° C. Compounds were prepared at 3× concentration in dilution buffer (20 mM HEPES and 0.1% BSA in 1×HBSS, pH 7.4). Serially diluted compound was transferred from source plate to a 384-well compound plate by using an Echo 550 (Labcyte). 20 μl/well compound dilution buffer was added to the compound plate and mixed on plate shaker for 2 mins. 4×EC80 of Anti-IgM (Jackson ImmunoResearch) was prepared in dilution buffer and 20 μl/well was added to a new 384-well compound plate. After 60 mins of incubation at 25° C. in the dark; cell plate, compound plate containing 4×EC80 of anti-IgM and FLIPR tips were placed into FLIPR (Molecular Devices). 10 ul/well of 4×EC80 anti-IgM was transferred to the cell plate by FLIPR. Plates were read for 160 sec with 1 sec interval.
With respect to Ramos activity, Table 9 lists activity as follows: • “A” denotes an IC50 of less than 10 nM; • “B” denotes an IC50 of from 10 nM to less than 100 nM; and • “C” denotes and IC50 of 100 nM or more.

Kp at 1 h [1] | kinact/KI [2] [M⁻¹ s⁻¹] | IC50 [3] [µM] | IC50 [4] [µM] | BTK hWB Kinact/Ki [2] | Structure (SMILES)
< 0.1 |  |  |  |  | C=CC(=O)N1CCC[C@@H](n2nc(-c3ccc(Oc4ccccc4)cc3)c3c(N)ncnc32)C1 [Ibrutinib, reference compound]
 | > 16700 | < 0.01 | < 0.01 |  | C=CC(=O)N1CCC=C(c2c(F)c(F)c(C(N)=O)c3[nH]c(C)c(Cl)c23)C1 [Compound 4, 4-(1-acryloyl-1,2,5,6-tetrahydropyridin-3-yl)-3-chloro-5,6-difluoro-2-methyl-1H-indole-7-carboxamide]
 | 1670 to 16700 | 0.01 to 0.1 | 0.01 to 0.1 |  | C=CC(=O)N1CCC[C@H](c2c(F)cc(C(N)=O)c3[nH]c(C)c(Cl)c23)C1 [Compound 2b, (R)-4-(1-acryloylpiperidin-3-yl)-3-chloro-5-fluoro-2-methyl-1H-indole-7-carboxamide]
 | > 16700 | 0.01 to 0.1 | 0.01 to 0.1 |  | C=CC(=O)N1CCC[C@H](c2c(F)c(F)c(C(N)=O)c3[nH]c(C)c(Cl)c23)C1 [Compound 15, (R)-4-(1-acryloylpiperidin-3-yl)-3-chloro-5,6-difluoro-2-methyl-1H-indole-7-carboxamide]
 | < 1670 | 0.01 to 0.1 | 0.01 to 0.1 |  | C=CC(=O)N1CCC2CCN(c3c(F)cc(C(N)=O)c4[nH]c(C)c(C)c34)CC21 (centres unmarked) [Compound 32, 4-(1-acryloyloctahydro-6H-pyrrolo[2,3-c]pyridin-6-yl)-5-fluoro-2,3-dimethyl-1H-indole-7-carboxamide]
 |  | 0.01 to 0.1 | 0.01 to 0.1 | A (a Kinact/Ki >10×10^−4 nM^−1 min^−1) | C=CC(=O)N1CCC2CCN(c3c(F)cc(C(N)=O)c4[nH]c(C)c(C)c34)CC21 (single isomer, unassigned) [Compound 32a, 4-(1-acryloyloctahydro-6H-pyrrolo[2,3-c]pyridin-6-yl)-5-fluoro-2,3-dimethyl-1H-indole-7-carboxamide]
 | < 1670 | < 0.01 | < 0.01 |  | C=CC(=O)N1CCc2c(cccc2-c2c(F)cc(C(N)=O)c3[nH]c(C)c(Cl)c23)C1 [Compound 20a, 4-(2-acryloyl-1,2,3,4-tetrahydroisoquinolin-5-yl)-3-chloro-5-fluoro-2-methyl-1H-indole-7-carboxamide]
 | 1670 to 16700 | < 0.01 | < 0.01 |  | CC#CC(=O)N[C@H]1C[C@H](F)CN(c2c(F)cc(C(N)=O)c3[nH]c(C)c(Cl)c23)C1 [Compound 28, 4-((3S,5S)-3-(but-2-ynamido)-5-fluoropiperidin-1-yl)-3-chloro-5-fluoro-2-methyl-1H-indole-7-carboxamide]
< 0.1 | > 16700 |  |  |  | CC#CC(=O)N[C@H]1CCCN(c2c(F)cc(C(N)=O)c3[nH]c(C)c(C)c23)C1 [Branebrutinib, reference compound]
 | > 16700 | < 0.01 | < 0.01 |  | C=CC(=O)N[C@H]1C[C@H](F)CN(c2c(F)cc(C(N)=O)c3[nH]c(C)c(C)c23)C1 [Compound 36, 4-((3S,5S)-3-acrylamido-5-fluoropiperidin-1-yl)-5-fluoro-2,3-dimethyl-1H-indole-7-carboxamide]
< 0.1 | < 1670 |  |  |  | CC#CC(=O)N1CCC[C@H]1c1nc(-c2ccc(C(=O)Nc3ccccn3)cc2)c2c(N)nccn12 [Acalabrutinib, reference compound]
